# Literature values, collected in patent publication US12678435B2, “Prevention and/or treatment of contrast-induced acute kidney injury” (Saghmos Therapeutics Inc., priority 2016, dated 2026).
# Tested on: patients with high serum creatinine levels undergoing coronary angiography/angioplasty
# Conditions: four Phase 2 clinical trials; compared with isotonic saline; published in Onbasili 2007, Rahman 2012, Shehata 2014, Liu 2015
structure (smiles),measurement,value
COc1ccc(CN2CCNCC2)c(OC)c1OC [Trimetazidine],reducing the risk of contrast-induced nephropathy (CIN),more effective than isotonic saline in reducing the risk of contrast-induced nephropathy (CIN)
